According to patent publication US20230000940A1, “Composition for prevention or treatment of Porcine epidemic diarrhea virus infection comprising curcuminoid and licorice extracts or fraction thereof” (KOREA RESEARCH INSTITUTE OF BIOSCIENCE AND BIOTECHNOLOGY, priority 2019, published 2023):

Experiments:
IL-6 = experiment: Inhibitory effect on IL-6 in PED coronavirus-infected Vero cells; type: cell-based; conditions: 10 μM, vs virus-infected group
Experimental: To investigate the inhibitory effect of the complex on IL-6, which is a pro-inflammatory cytokine involved in promoting inflammation, virus infection was performed in the same manner as in Example 2-1, followed by treatment with the complex.

[1] = tested on: nucleoprotein (N protein) of the PED coronavirus; conditions: 10 μM, vs virus-infected group
Experimental: To investigate the target protein expression inhibitory effect of the complex on the nucleoprotein (N protein) of the PED coronavirus, Vero cells were infected with 0.001 MOI of PED coronavirus for 1 hour.

TNF-α = experiment: Inhibitory effect on TNF-α in PED coronavirus-infected Vero cells; type: cell-based; conditions: 10 μM, vs virus-infected group
Experimental: To investigate the inhibitory effect of the complex on TNF-α, which is a pro-inflammatory cytokine involved in promoting inflammation, virus infection was performed in the same manner as in Example 2-1, followed by treatment with the complex.

IL-8 = experiment: Inhibitory effect on IL-8 in PED coronavirus-infected Vero cells; type: cell-based; conditions: 10 μM, vs virus-infected group
Experimental: To investigate the inhibitory effect of the complex on IL-8, which is a pro-inflammatory cytokine involved in promoting inflammation, virus infection was performed in the same manner as in Example 2-1, followed by treatment with the complex.

PED coronavirus = conditions: component alone; statement without data; cited from earlier work

Structure (SMILES)	inhibitory effect on IL-6 (IL-6) [fold]	nucleoprotein synthesis inhibition (inhibitory effect) [1] [fold]	inhibitory effect on TNF-α (TNF-α) [fold]	inhibitory effect on IL-8 (IL-8) [fold]	inhibitory effect against PED coronavirus (PED coronavirus)
O=c1cnn([C@@H]2O[C@H](CO)[C@@H](O)[C@H]2O)c(=O)[nH]1 [6-azauridine]	5.8	6.8	3.8	25.4	–
COc1cc(/C=C/C(=O)/C=C(O)/C=C/c2ccc(O)c(OC)c2)ccc1O [curcumin]	–	–	–	–	no inhibitory effect
